Measurements taken from publication PMC8468607 (International Journal of Molecular Sciences, 2021).

Key:
Hep3B cells [1] = assay: Apoptosis by annexin V-FITC/PI FACS, Hep3B; type: cell-based; settings: Homo sapiens, 48 h, Q4 lower left, annexin V-FITC and PI negative, read-out: FACS quadrant Q4 viable cells, Hep3B
Method: (§1) Then, the cells were stained with propidium iodide and Annexin V-FITC using a FITC Annexin V apoptosis detection kit (BD Biosciences, San Jose, CA, USA) as per the manufacturer’s instructions. Briefly, the vehicle- or the drug-treated cells (1 × 10^5) were washed with ice-cold PBS twice and suspended in 1× binding buffer (100 μL). Then, 5 μL of Annexin V-FITC and 5 µL of PI were added, gently vortexed, and incubated for 15 min at 25 °C in the dark. Thereafter, 400 µL of 1× binding buffer was added and analyzed by flow cytometry (FACSVerse Cytometer, BD Biosciences).

A549 cells [2] = assay: Apoptosis by annexin V-FITC/PI FACS, A549; type: cell-based; settings: Homo sapiens, 48 h, Q4 lower left, annexin V-FITC and PI negative, read-out: FACS quadrant Q4 viable cells, A549
Method: as §1

[3] = Cytotoxicity assay (MTT), H6c7 normal pancreatic duct epithelial cells; type: cell-based; settings: normal human pancreatic duct epithelial cells, mean ± S.E.M., read-out: IC50 against cell viability (cytotoxicity), H6c7
Method: (§2) Human cancer cell lines derived from the liver (Hep3B, Huh7) and the lung (A549, H1299) were obtained from American Type Culture Collection (ATCC, Manassas, VA, USA). An H6c7 human normal pancreatic duct epithelial cell line was purchased from Kerafast (Boston, MA, USA). Hep3B, Huh7, and A549 cells were cultured in Dulbecco′s Modified Eagle′s Medium (DMEM) (Hyclone, Logan, UT, USA), and H1299 cells were cultured in an RPMI-1640 medium (Hyclone). The media were supplemented with 10% fetal bovine serum (FBS) (Gibco/ThermoFisher Scientific) and 1% penicillin/streptomycin (Gibco/ThermoFisher Scientific). In the case of H6c7, the cells were maintained in a keratinocyte serum-free medium supplemented with a recombinant […] (rEGF) and bovine pituitary extract (Gibco/ThermoFisher Scientific). All the cells were incubated at 37 °C under a 5% CO2 atmosphere.
The H6c7 cell line was seeded in a 96-well plate in a complete medium. After 24 h, the culture medium was changed into a keratinocyte serum-free medium. […] The optical density was measured at 540 nm using a Spectrostar Nano microplate reader (BMG LABTECH).

[4] = tested on: Hep3B cells xenografted onto CAM; assay: Hep3B xenografted CAM tumor model; type: in vivo, chick; settings: 30 and 150 pmol/CAM, 4 days of incubation
Method: Fertilized chicken eggs were purchased from Byeolbichon Farm (Gyeongbuk, South Korea) and incubated at 37 °C with 55% relative humidity. On day 9 of egg incubation, a small hole was made in the shell over the air sac after the selection of bifurcated vessels. Another hole was made on the broadside using a needle by applying negative pressure to the wider part, creating false air sac. Using a grinding wheel (Dremel, Racine, WI, USA), a small window (1 cm^2) was created in the eggshell above the false air sac. […] The mixture was inoculated on the CAM (final drug doses = 30 and 150 pmol/CAM), and the anti-tumor activity of the drugs was compared at the same concentrations. After sealing the window in the eggshell, the eggs were then returned to the incubator. After 4 days of incubation, tumor tissues attached to CAM were resected from the embryo and harvested. The number of vessel branch points within the tumor region was counted and analyzed using ImageJ software. Chick embryo experiments were performed in accordance with the institutional guidelines of the Institute of Laboratory Animal Resources (1996) and Yeungnam University for the care and use of laboratory animals (2009). The experiment protocol was reviewed and approved by the Institutional Animal Care and Use Committee at the Yeungnam University.

[5] = tested on: several cancer cell lines; design: method as in PMID 27145715; settings: cited from earlier work
normal cell lines = tested on: normal cell lines; design: method as in PMID 27145715; settings: cited from earlier work
human c-Met kinase = molecular target: T1, human c-Met kinase (Homo sapiens, UniProt P08581); assay: c-Met kinase assay (Kinase HotSpot, Reaction Biology); type: biochemical; settings: for c-Met inhibition at fixed concentration / inhibition at 1 µM: 1 μM compound; for c-Met inhibition at fixed concentration: 1 µM; for inhibition at 1 µM: read-out: c-Met inhibition at fixed concentration; for IC50: three independent experiments, ATP 10 μM, read-out: IC50 against c-Met kinase
T1 construct: purchased Reaction Biology Corporation (Malvern, PA, USA), contract assay service
Method: Briefly, human c-Met kinase (5–10 mU) and peptide substrate ([…], 20 µM) were prepared in a reaction buffer with a final volume of 25 μL. The compounds were delivered into the reaction, followed ~20 min. later by the addition of a mixture of ATP and [γ-33P-ATP] (specific activity approx. 500 cpm/pmol, concentration as required) to a final concentration of 10 μM. […] Then, the reaction was spotted onto a P30 filtermat, and unbound phosphate was removed by washing 3 times for 5 min in 75 mM phosphoric acid and once in methanol prior to drying and scintillation counting. […] IC50 values and curve fits were obtained using GraphPad Prism 5 software.

Huh7 cells = assay: Proliferation assay (MTT), Huh7; type: cell-based; settings: Homo sapiens, Huh-7, HCC cell line, 48 h, mean ± S.E.M., read-out: IC50 against cell proliferation, Huh7
From the text: as §2, with “Hep3B, Huh7, and A549 cells were cultured in Dulbecco′s Modified Eagle′s Medium (DMEM) (Hyclone, Logan, UT, USA), and H1299 cells were cultured in an RPMI-1640 medium (Hyclone).” left out, “Scientific).” for “Scientific). All the cells were incubated at 37 °C under a 5% CO2 atmosphere.”
(§3) HCC (Hep3B, Huh7) and NSCLC (A549, H1299) cell lines were seeded in a 96-well plate at a density of 2.5 × 10^4 cells/mL in complete media and allowed to adhere for 24 h. […] Then, the media were removed, and 200 µL of dimethyl sulfoxide (DMSO) (Duksan, Ansan, South Korea) was added to solubilize the formazan crystal. After a 30 min incubation, the absorbance was measured at 540 nm using a microplate reader (BMG LABTECH, Ortenberg, Germany).

Hep3B cells [6] = assay: Proliferation assay (MTT), Hep3B; type: cell-based; settings: Homo sapiens, HCC cell line, 48 h, mean ± S.E.M., read-out: IC50 against cell proliferation, Hep3B
From the text: as §2, with “Hep3B, Huh7, and A549 cells were cultured in Dulbecco′s Modified Eagle′s Medium (DMEM) (Hyclone, Logan, UT, USA), and H1299 cells were cultured in an RPMI-1640 medium (Hyclone).” left out, “Scientific).” for “Scientific). All the cells were incubated at 37 °C under a 5% CO2 atmosphere.”
as §3

A549 cells [7] = assay: Proliferation assay (MTT), A549; type: cell-based; settings: Homo sapiens, NSCLC cell line, 48 h, mean ± S.E.M., read-out: IC50 against cell proliferation, A549
From the text: as §2, with “Hep3B, Huh7, and A549 cells were cultured in Dulbecco′s Modified Eagle′s Medium (DMEM) (Hyclone, Logan, UT, USA), and H1299 cells were cultured in an RPMI-1640 medium (Hyclone).” left out, “Scientific).” for “Scientific). All the cells were incubated at 37 °C under a 5% CO2 atmosphere.”
as §3

H1299 cells = assay: Proliferation assay (MTT), H1299; type: cell-based; settings: Homo sapiens, NCI-H1299, NSCLC cell line, 48 h, mean ± S.E.M., read-out: IC50 against cell proliferation, H1299
From the text: as §2, with “Hep3B, Huh7, and A549 cells were cultured in Dulbecco′s Modified Eagle′s Medium (DMEM) (Hyclone, Logan, UT, USA), and H1299 cells were cultured in an RPMI-1640 medium (Hyclone).” left out, “Scientific).” for “Scientific). All the cells were incubated at 37 °C under a 5% CO2 atmosphere.”
as §3

c-MET = assay: Immunoblotting of c-MET expression and phosphorylation in HCC and NSCLC cell lines; type: cell-based, human; settings: 10 μM, 24 and 48 h; Hep3B, Huh7, A549, H1299 cells
Method: The cells (3.5 × 10^5) were seeded into a 60 mm dish and allowed to attach for 12 h. […] Cell lysates were collected in a radioimmune precipitation assay (RIPA) buffer containing a protease and phosphatase inhibitor cocktail (Thermo Fisher Scientific). Cell extracts were centrifuged at 17,000× g for 15 min, and the protein levels in collected supernatants were measured using a BCA protein assay reagent (Pierce; Rockford, IL, USA). The proteins were separated by SDS-PAGE and transferred at 200 mA to Hybond ECL nitrocellulose membranes (Amersham Life Science, Buckinghamshire, UK) for 1 h. Non-specific binding was blocked using 5% bovine serum albumin (BSA) in Tris-buffered saline (TBS)-Tween 20 (TBS-T) for 1 h. […] The membranes were then washed, incubated with ECL (Pierce, Appleton, WI, USA) detection reagent, and exposed under a luminescent image analyzer, LAS-4000mini. β-Actin was used as the loading control.

T1 sequence (P08581 25-1390): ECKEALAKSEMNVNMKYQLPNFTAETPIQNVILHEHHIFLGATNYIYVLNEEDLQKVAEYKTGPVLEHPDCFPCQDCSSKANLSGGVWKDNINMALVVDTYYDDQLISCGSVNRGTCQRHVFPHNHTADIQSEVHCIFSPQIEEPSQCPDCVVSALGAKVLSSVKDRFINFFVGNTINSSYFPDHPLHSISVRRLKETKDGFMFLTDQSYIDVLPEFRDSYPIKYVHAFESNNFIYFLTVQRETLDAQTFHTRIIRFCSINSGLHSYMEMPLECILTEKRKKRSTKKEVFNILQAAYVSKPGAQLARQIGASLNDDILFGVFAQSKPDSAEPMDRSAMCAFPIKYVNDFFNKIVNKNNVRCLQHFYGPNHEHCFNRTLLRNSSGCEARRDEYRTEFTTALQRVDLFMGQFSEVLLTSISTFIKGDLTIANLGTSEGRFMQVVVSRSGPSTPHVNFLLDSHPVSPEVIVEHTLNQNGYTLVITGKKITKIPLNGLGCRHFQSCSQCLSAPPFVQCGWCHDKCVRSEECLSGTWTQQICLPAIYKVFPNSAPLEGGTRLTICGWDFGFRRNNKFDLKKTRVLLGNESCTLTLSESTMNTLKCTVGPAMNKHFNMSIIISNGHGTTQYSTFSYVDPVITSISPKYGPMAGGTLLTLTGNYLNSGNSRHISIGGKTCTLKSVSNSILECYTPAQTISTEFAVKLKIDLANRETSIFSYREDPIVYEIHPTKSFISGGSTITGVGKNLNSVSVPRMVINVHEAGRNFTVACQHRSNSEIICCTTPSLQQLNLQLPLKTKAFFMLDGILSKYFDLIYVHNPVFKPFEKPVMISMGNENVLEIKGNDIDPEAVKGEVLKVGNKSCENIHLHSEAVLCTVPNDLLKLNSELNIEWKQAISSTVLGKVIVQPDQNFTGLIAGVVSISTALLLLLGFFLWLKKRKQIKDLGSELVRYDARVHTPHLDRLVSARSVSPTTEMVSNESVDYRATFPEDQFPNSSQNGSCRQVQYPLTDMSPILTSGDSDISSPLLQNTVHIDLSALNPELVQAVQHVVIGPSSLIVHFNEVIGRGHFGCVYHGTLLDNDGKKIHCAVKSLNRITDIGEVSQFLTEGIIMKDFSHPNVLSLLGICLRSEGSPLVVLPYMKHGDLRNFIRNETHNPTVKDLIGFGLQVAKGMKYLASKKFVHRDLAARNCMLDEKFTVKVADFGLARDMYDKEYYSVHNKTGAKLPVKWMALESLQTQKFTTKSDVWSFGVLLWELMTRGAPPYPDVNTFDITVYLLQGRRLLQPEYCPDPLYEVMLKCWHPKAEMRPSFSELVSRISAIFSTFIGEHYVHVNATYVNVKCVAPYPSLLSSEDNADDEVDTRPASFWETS

c-Met inhibition at fixed concentration (human c-Met kinase) | inhibition at 1 µM (human c-Met kinase) | IC50 (human c-Met kinase) | IC50 (Huh7 cells) | melting point | IC50 (Hep3B cells [6]) | IC50 (A549 cells [7]) | IC50 (H1299 cells) | Structure (SMILES) | viability at 10 µM (Hep3B cells [1]) | viability at 10 µM (A549 cells [2]) | IC50 at 48 h [3] | Tumor-induced angiogenesis (number of new vessel branches) [4] | Anti-cancer activity against several cancer cell lines compared to sunitinib [5] | Toxicity to normal cell lines compared to sunitinib (normal cell lines) | Expression of c-MET and its phosphorylation (c-MET) | Inhibitory effect on tumor weight [4]
– | – | – | – | – | – | – | – | COc1cc2nccc(Oc3ccc(NC(=O)C4(C(=O)Nc5ccc(F)cc5)CC4)cc3)c2cc1OC [Cabozantinib, cabozantinib, reference compound] | 79.5% | 81.3% | 39.4 ± 4.3 µM | significantly blocked | – | – | – | –
– | – | – | – | – | – | – | – | CCN(CC)CCNC(=O)c1c(C)[nH]c(/C=C2\C(=O)Nc3nc(C)c(O)c(C)c32)c1C [Compound 1] | – | – | – | – | comparable anti-cancer activity | less toxic to normal cell lines | – | –
4% | 3.8% | > 1 µM | > 100 µM | 141 °C | > 100 µM | > 100 µM | > 100 µM | COc1cc2nccc(Oc3c(C)nc(NC(=O)C4(C(=O)Nc5ccc(F)cc5)CC4)c(C)c3C)c2cc1OC [Compound 3] | – | – | > 100 µM | – | – | – | – | –
94% | 94.3% | 0.0049 ± 0.0023 µM | 6.2 ± 1.8 µM | 119 °C | 2.1 ± 0.5 µM | 12.4 ± 6.9 µM | 8.9 ± 1.2 µM | COc1cc2nccc(Oc3ccc(NC(=O)C4(C(=O)Nc5ccc(F)cc5)CC4)nc3)c2cc1OC [Compound 4] | 35.3% | 61.8% | 19.9 ± 1.8 µM | significantly blocked | – | – | significantly reduced | greater than that of cabozantinib
